Laboratory results as given in patent US8969516B2, “Method of hydrolysis of peptide bond” (priority 2006, dated 2015).

Assay: MALDI-TOF screening of Ni^2+ dependent hydrolysis in a combinatorial peptide library
Assay type: physicochemical
Settings: CH3CO-Gly-Ala-Ser-X-His-Z-Lys-Phe-Leu-NH2 library, Ni^2+ 2 mM, pH 8.2, 10 mM Tris, score=24/tm
From the text: The sequence CH3CO-Gly-Ala-Ser/Thr-X-His-Z-Lys-Phe-Leu-NH2 was designed so that the fixed R1 and R2 sequences, CH3CO-Gly-Ala, and Lys-Phe-Leu-NH2, respectively, allowed optimal detection by MALDI-TOF mass spectrometry of substrates as well as expected products, Ser/Thr-X-His-Z-Lys-Phe-Leu-NH2 and assured separation between the clusters of signals for substrates and products in sublibraries (see below).
Residues in position X included all amino acids commonly present in proteins, except for Asp, Glu, and Cys. The former two contain carboxylates in their side chains, which may bind Ni^2+ in a way which would quench or slow down the hydrolysis reaction. The Cys residue may do the same, and also may engage in side reactions with Ni^2+ ions, including redox processes (for example see Bal and Kasprzak, Toxicol. Lett. 2002, 127, 55-62). Only the Cys residue was eliminated from position Z, for the same reasons.
The synthesis of the library was accomplished on a RINK amide resin (Novabiochem) on a 800 mg scale, according to a typical Fmoc protocol (Fields, Meth. Enzymol. Vol. 289). The resin-attached Leu-Phe-Lys peptide was synthesised first and coupled with the isokinetic mixture of 19 amino acids selected for position Z, and then with the H is residue. The resin carrying the library of pentapeptides was divided into Ser and Thr halves at this stage, and each of these halves into 17 portions, which were coupled with individual amino acids selected for position X. The coupling with Ser or Thr as appropriate, additions of Ala and Gly residues, acetylation of Gly, deprotection and cleavage from the resin were accomplished subsequently. Each of the resulting 34 samples of sublibraries randomized at position X was separated into two portions, one for the reaction at 37° C. and another for the reaction at 45° C. The hydrolysis reactions were accomplished in 10 mM Tris buffers at pH 8.2. The total concentrations of peptide mixtures and Ni^2+ ions were 1 mM and 2 mM, respectively. The pH for the reaction was chosen as selective for highly reactive sequences.
The detection of reaction products was accomplished with the use of a MALDI-TOF mass spectrometer (Micromass). The aliquots were removed from reaction mixtures and measured by MS at 2, 4, 6, and 8 hours of incubation. The progress of reaction was evaluated by visual detection in mass spectra of appearance of signals corresponding to expected products of hydrolysis, Ser/Thr-X-His-Z-Lys-Phe-Leu-NH2, at given measurement times, tm. […] Also the decrease of signals of substrates was controlled in these cases.
Residues X and Z were then sorted according to various molecular parameters, describing their physical properties (Carugo, In Silico Biol. 2003, 3, 0035). […] The Ser library provided a higher number of reactive peptides than the Thr library. Following the additivity of effects, the scores were also summed up in lines and columns of Table 1A-D, thereby creating final rankings for preferred substitutions in positions X and Z.

Row | Substance | hydrolysis score from MALDI-TOF screening (37° C.) | hydrolysis score from MALDI-TOF screening (45° C.)
1 | Ac-GASAHDKFL-NH2 [SAHD] | 0 (a score of 0 if no trace of the product of hydrolysis was seen after 8 hours of incubation) | 0 (a score of 0 if no trace of the product of hydrolysis was seen after 8 hours of incubation)
2 | Ac-GASAHFKFL-NH2 [SAHF] | 0 (a score of 0 if no trace of the product of hydrolysis was seen after 8 hours of incubation) | 3 (a score of 3 for detection at 8 hours)
3 | Ac-GASAHGKFL-NH2 [SAHG] | 0 (a score of 0 if no trace of the product of hydrolysis was seen after 8 hours of incubation) | 0 (a score of 0 if no trace of the product of hydrolysis was seen after 8 hours of incubation)
4 | Ac-GASAHIKFL-NH2 [SAHI] | 0 (a score of 0 if no trace of the product of hydrolysis was seen after 8 hours of incubation) | 4 (a score of 4 for detection at 6 hours)
5 | Ac-GASAHKKFL-NH2 [SAHK] | 3 (a score of 3 for detection at 8 hours) | 6 (a score of 6 for detection at 4 hours)
6 | Ac-GASAHLKFL-NH2 [SAHL] | 0 (a score of 0 if no trace of the product of hydrolysis was seen after 8 hours of incubation) | 4 (a score of 4 for detection at 6 hours)
7 | Ac-GASAHMKFL-NH2 [SAHM] | 0 (a score of 0 if no trace of the product of hydrolysis was seen after 8 hours of incubation) | 0 (a score of 0 if no trace of the product of hydrolysis was seen after 8 hours of incubation)
8 | Ac-GASAHNKFL-NH2 [SAHN] | 0 (a score of 0 if no trace of the product of hydrolysis was seen after 8 hours of incubation) | 0 (a score of 0 if no trace of the product of hydrolysis was seen after 8 hours of incubation)
9 | Ac-GASAHQKFL-NH2 [SAHQ] | 0 (a score of 0 if no trace of the product of hydrolysis was seen after 8 hours of incubation) | 0 (a score of 0 if no trace of the product of hydrolysis was seen after 8 hours of incubation)
10 | Ac-GASAHRKFL-NH2 [SAHR] | 3 (a score of 3 for detection at 8 hours) | 6 (a score of 6 for detection at 4 hours)
11 | Ac-GASAHSKFL-NH2 [SAHS] | 0 (a score of 0 if no trace of the product of hydrolysis was seen after 8 hours of incubation) | 0 (a score of 0 if no trace of the product of hydrolysis was seen after 8 hours of incubation)
12 | Ac-GASAHTKFL-NH2 [SAHT] | 0 (a score of 0 if no trace of the product of hydrolysis was seen after 8 hours of incubation) | 0 (a score of 0 if no trace of the product of hydrolysis was seen after 8 hours of incubation)
13 | Ac-GASAHVKFL-NH2 [SAHV] | 0 (a score of 0 if no trace of the product of hydrolysis was seen after 8 hours of incubation) | 3 (a score of 3 for detection at 8 hours)
14 | Ac-GASAHWKFL-NH2 [SAHW] | 4 (a score of 4 for detection at 6 hours) | 6 (a score of 6 for detection at 4 hours)
15 | Ac-GASAHYKFL-NH2 [SAHY] | 0 (a score of 0 if no trace of the product of hydrolysis was seen after 8 hours of incubation) | 3 (a score of 3 for detection at 8 hours)
16 | Ac-GASFHAKFL-NH2 [SFHA] | 0 (a score of 0 if no trace of the product of hydrolysis was seen after 8 hours of incubation) | 3 (a score of 3 for detection at 8 hours)
17 | Ac-GASFHDKFL-NH2 [SFHD] | 0 (a score of 0 if no trace of the product of hydrolysis was seen after 8 hours of incubation) | 0 (a score of 0 if no trace of the product of hydrolysis was seen after 8 hours of incubation)

Row | Substance | hydrolysis score from MALDI-TOF screening (37° C.) | hydrolysis score from MALDI-TOF screening (45° C.)
18 | Ac-GASFHEKFL-NH2 [SFHE] | 0 (a score of 0 if no trace of the product of hydrolysis was seen after 8 hours of incubation) | 3 (a score of 3 for detection at 8 hours)
19 | Ac-GASFHFKFL-NH2 [SFHF] | 3 (a score of 3 for detection at 8 hours) | 6 (a score of 6 for detection at 4 hours)
20 | Ac-GASFHGKFL-NH2 [SFHG] | 0 (a score of 0 if no trace of the product of hydrolysis was seen after 8 hours of incubation) | 0 (a score of 0 if no trace of the product of hydrolysis was seen after 8 hours of incubation)
21 | Ac-GASFHIKFL-NH2 [SFHI] | 4 (a score of 4 for detection at 6 hours) | 6 (a score of 6 for detection at 4 hours)
22 | Ac-GASFHKKFL-NH2 [SFHK] | 4 (a score of 4 for detection at 6 hours) | 6 (a score of 6 for detection at 4 hours)
23 | Ac-GASFHLKFL-NH2 [SFHL] | 4 (a score of 4 for detection at 6 hours) | 6 (a score of 6 for detection at 4 hours)
24 | Ac-GASFHMKFL-NH2 [SFHM] | 0 (a score of 0 if no trace of the product of hydrolysis was seen after 8 hours of incubation) | 3 (a score of 3 for detection at 8 hours)
25 | Ac-GASFHNKFL-NH2 [SFHN] | 0 (a score of 0 if no trace of the product of hydrolysis was seen after 8 hours of incubation) | 0 (a score of 0 if no trace of the product of hydrolysis was seen after 8 hours of incubation)
26 | Ac-GASFHPKFL-NH2 [SFHP] | 0 (a score of 0 if no trace of the product of hydrolysis was seen after 8 hours of incubation) | 0 (a score of 0 if no trace of the product of hydrolysis was seen after 8 hours of incubation)
27 | Ac-GASFHQKFL-NH2 [SFHQ] | 0 (a score of 0 if no trace of the product of hydrolysis was seen after 8 hours of incubation) | 0 (a score of 0 if no trace of the product of hydrolysis was seen after 8 hours of incubation)
28 | Ac-GASFHRKFL-NH2 [SFHR] | 4 (a score of 4 for detection at 6 hours) | 6 (a score of 6 for detection at 4 hours)
29 | Ac-GASFHSKFL-NH2 [SFHS] | 0 (a score of 0 if no trace of the product of hydrolysis was seen after 8 hours of incubation) | 0 (a score of 0 if no trace of the product of hydrolysis was seen after 8 hours of incubation)
30 | Ac-GASFHTKFL-NH2 [SFHT] | 0 (a score of 0 if no trace of the product of hydrolysis was seen after 8 hours of incubation) | 0 (a score of 0 if no trace of the product of hydrolysis was seen after 8 hours of incubation)
31 | Ac-GASFHVKFL-NH2 [SFHV] | 3 (a score of 3 for detection at 8 hours) | 6 (a score of 6 for detection at 4 hours)
32 | Ac-GASFHWKFL-NH2 [SFHW] | 4 (a score of 4 for detection at 6 hours) | 6 (a score of 6 for detection at 4 hours)
33 | Ac-GASFHYKFL-NH2 [SFHY] | 3 (a score of 3 for detection at 8 hours) | 6 (a score of 6 for detection at 4 hours)
34 | Ac-GASGHAKFL-NH2 [SGHA] | 0 (a score of 0 if no trace of the product of hydrolysis was seen after 8 hours of incubation) | 0 (a score of 0 if no trace of the product of hydrolysis was seen after 8 hours of incubation)
